Consider ten compounds from ChEMBL document CHEMBL1124952, “Growth inhibition and induction of cellular differentiation of human myeloid leukemia cells in culture by carbamoyl congeners of ribavirin” (1990).

What all share (assay type): functional
One assay has as its system K562. Nature of the assay: Evaluated for cell growth inhibition and induction of cellular differentiation of human myeloid leukemia cell line (K562). As to conditions: read-out: ID50 (the source's name).
Assay [1] can be described thus: Evaluated for cell growth inhibition and induction of cellular differentiation of human B-lymphoblast cell line (WI-L2). As to conditions: WIL2, read-out: ID50 (the source's name).
The next assay has as its system L1210. Nature of the assay: Evaluated for cell growth inhibition and induction of cellular differentiation of Murine leukemia cell line (L-1210). To be noted: Mus musculus, read-out: ID50 (the source's name).
The test system of a further assay is HL-60. Nature of the assay: Evaluated for cell growth inhibition and induction of cellular differentiation of human myeloid leukemia cell line (HL-60). As to conditions: read-out: ID50 (the source's name).

Take `NC(=O)c1ncn([C@@H]2O[C@H](CO)[C@@H](O)[C@H]2O)n1` [RIBAVIRIN]: the IC50 with K562 turned out to be 50 µM; in assay [1] it was 42 µM; in the assay on L1210, 36 µM; in the assay with HL-60, 67 µM.

On to `NC(=O)c1nn(C2O[C@H](CO)[C@@H](O)[C@H]2O)c(N)c1C(N)=O` (stereo not given in full), for which the IC50 was determined as 51 µM with K562, 46 µM in assay [1], 44 µM in the assay on L1210 and 39 µM in the assay with HL-60.

Turning to `N=C(N)c1nn(C2OC(CO)[C@H](O)C2O)c(N)c1C(=N)N` (stereo not given in full), the IC50 was > 200 µM in the assay with K562, 179 µM in assay [1], 200 µM in the assay with L1210 and 130 µM with HL-60.

Consider `NC(=O)c1nn([C@@H]2O[C@H](CO)[C@@H](O)[C@H]2O)nc1C(N)=O`, for which the IC50 was 26 µM with K562, 41 µM in assay [1], > 100 µM with L1210 and 32 µM in the assay with HL-60.

For the compound `N=C(S)c1nn(C2O[C@H](CO)[C@@H](O)[C@H]2O)nc1C(N)=S` (stereo not given in full), the IC50 (in the assay on K562; in assay [1]; in the assay on L1210; with HL-60) was > 200 µM in each case.

Take `NC(=O)c1cn(C2O[C@H](CO)[C@@H](O)[C@H]2O)cc1C(N)=O` (stereo not given in full): the IC50 in the assay on K562 was determined as 32 µM; in assay [1], 33 µM; with L1210, 48 µM; in the assay with HL-60 it was 36 µM.

As for `NC(=O)c1cn(C2O[C@H](CO)[C@@H](O)[C@H]2O)nc1C(N)=O` (stereo not given in full), the IC50 is 160 µM with K562, 100 µM in assay [1], > 100 µM in the assay with L1210 and 58 µM with HL-60.

On to `N=C(S)c1nn(C2O[C@H](CO)[C@@H](O)[C@H]2O)c(N)c1C(N)=S` (stereo not given in full), for which the IC50 was > 200 µM in the assay on K562, 154 µM in assay [1], > 200 µM in the assay with L1210 and 200 µM with HL-60.

As for `N=C(NO)c1nn(C2O[C@H](CO)[C@@H](O)[C@H]2O)nc1/C(N)=N/O` (stereo not given in full), the IC50 (in the assay on K562; in assay [1]; in the assay on L1210; with HL-60) was > 200 µM each time.

In the case of `N=C(NO)c1nn(C2O[C@H](CO)[C@@H](O)[C@H]2O)c(N)c1/C(N)=N/O` (stereo not given in full), the IC50 (with K562; in assay [1]; with L1210; in the assay with HL-60) was > 200 µM throughout.
